The test has as its target T1, MYO3B (MYO3 beta) (Homo sapiens, UniProt Q8WXR4).
T1 construct: purchased Thermo Fisher Scientific (Life Technologies) SelectScreen
The test can be described thus: SelectScreen LanthaScreen. Type of test: binding. The note with it: read-out: % displacement. The method in brief:
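SelectScreen broad panel; activity (Z'LYTE, Adapta) plus binding formats. ATP: Km app for CSF1R Z'LYTE; 10 for CAMK1 Adapta. Readout = % per kinase.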
For orientation: TR-FRET usually uses a lanthanide donor and a delayed reading to cut background.

One compound from publication PMC6934184, “Selective DNA-PKcs inhibition extends the therapeutic index of localized radiotherapy and chemotherapy” (The Journal of Clinical Investigation, 2019) can be followed below.

T1 sequence (Q8WXR4 whole entry): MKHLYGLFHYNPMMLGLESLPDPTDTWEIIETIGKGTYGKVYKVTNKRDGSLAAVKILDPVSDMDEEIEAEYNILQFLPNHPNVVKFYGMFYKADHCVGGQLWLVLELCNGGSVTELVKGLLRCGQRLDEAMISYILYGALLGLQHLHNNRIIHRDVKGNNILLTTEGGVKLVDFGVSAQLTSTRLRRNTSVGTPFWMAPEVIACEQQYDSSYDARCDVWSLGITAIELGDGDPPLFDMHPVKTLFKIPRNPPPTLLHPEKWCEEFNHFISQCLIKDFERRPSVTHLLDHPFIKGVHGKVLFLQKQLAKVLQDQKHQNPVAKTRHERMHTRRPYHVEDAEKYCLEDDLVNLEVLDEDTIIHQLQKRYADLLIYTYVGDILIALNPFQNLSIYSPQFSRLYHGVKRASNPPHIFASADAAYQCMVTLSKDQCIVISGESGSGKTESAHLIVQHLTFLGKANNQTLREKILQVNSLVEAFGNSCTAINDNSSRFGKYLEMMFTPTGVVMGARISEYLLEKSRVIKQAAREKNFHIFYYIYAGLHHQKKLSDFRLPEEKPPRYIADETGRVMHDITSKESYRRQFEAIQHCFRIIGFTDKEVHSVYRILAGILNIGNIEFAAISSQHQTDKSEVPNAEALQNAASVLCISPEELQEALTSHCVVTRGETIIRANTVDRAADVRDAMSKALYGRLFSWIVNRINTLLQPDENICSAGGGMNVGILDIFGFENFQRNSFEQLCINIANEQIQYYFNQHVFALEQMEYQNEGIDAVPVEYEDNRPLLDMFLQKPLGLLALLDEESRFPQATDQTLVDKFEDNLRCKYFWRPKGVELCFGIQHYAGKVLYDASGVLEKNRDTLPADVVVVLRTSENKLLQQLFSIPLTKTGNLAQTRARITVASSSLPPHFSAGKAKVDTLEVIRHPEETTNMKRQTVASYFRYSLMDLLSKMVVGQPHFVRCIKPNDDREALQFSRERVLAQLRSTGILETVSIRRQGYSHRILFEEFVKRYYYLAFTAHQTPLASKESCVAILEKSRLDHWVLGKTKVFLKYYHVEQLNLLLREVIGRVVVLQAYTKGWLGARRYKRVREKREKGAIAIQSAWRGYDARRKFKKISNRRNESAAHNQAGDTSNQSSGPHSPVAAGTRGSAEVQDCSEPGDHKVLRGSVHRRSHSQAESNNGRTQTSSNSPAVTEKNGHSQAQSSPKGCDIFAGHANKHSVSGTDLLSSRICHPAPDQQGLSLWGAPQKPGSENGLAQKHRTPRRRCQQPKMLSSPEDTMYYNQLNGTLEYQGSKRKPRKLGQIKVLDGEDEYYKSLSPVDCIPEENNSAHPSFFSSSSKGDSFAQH

As to `CN(C(=O)CN1CCOCC1)c1ccc2sc3c(-c4cccc5c(=O)cc(N6CC7CCC(C6)O7)oc45)cccc3c2c1` [NU5455], the inhibition at 1 µM came out at 2.3%.
